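Compound exposure: 48 hours, 5 concentrations, 96-well plates. GI50 marks 50% less growth. TGI is the concentration that stops growth completely.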
How the values were obtained:
Experiment in all cases: DTP human tumour cell line panel, 48 h
SK-MEL-2 melanoma = tested on: SK-MEL-2 melanoma
K-562 leukemia = tested on: K-562 leukemia
IGROV1 ovarian = tested on: IGROV1 ovarian
COLO 205 colon = tested on: COLO 205 colon
OVCAR-8 ovarian = tested on: OVCAR-8 ovarian
A498 renal = tested on: A498 renal
SK-MEL-5 melanoma = tested on: SK-MEL-5 melanoma
HCC-2998 colon = tested on: HCC-2998 colon
786-0 renal = tested on: 786-0 renal
U251 CNS = tested on: U251 CNS

SMILES | GI50 (SK-MEL-2 melanoma) [nM] | TGI (SK-MEL-2 melanoma) [µM] | GI50 (K-562 leukemia) [nM] | TGI (K-562 leukemia) [µM] | GI50 (IGROV1 ovarian) [nM] | TGI (IGROV1 ovarian) [µM] | GI50 (COLO 205 colon) [nM] | TGI (COLO 205 colon) [µM] | GI50 (OVCAR-8 ovarian) [nM] | TGI (OVCAR-8 ovarian) [µM] | GI50 (A498 renal) [nM] | TGI (A498 renal) [µM] | GI50 (SK-MEL-5 melanoma) [nM] | TGI (SK-MEL-5 melanoma) [µM] | GI50 (HCC-2998 colon) [nM] | TGI (HCC-2998 colon) [µM] | GI50 (786-0 renal) [nM] | TGI (786-0 renal) [µM] | GI50 (U251 CNS) [nM] | TGI (U251 CNS) [µM]
Nc1nc(N)c2c(n1)NC(c1sc(Cl)nc1Cl)CC(c1ccccc1)=N2 (centres undefined) | 2980 | 10.9 | 1680 | 20.9 | 7080 | 23.4 | 4180 | 15.4 | 4800 | 22.2 | 1280 | 8.92 | 3690 | 13.9 | 10300 | 21.9 | 5050 | 19.2 |  | 
Nc1nc(=O)n(C2CC(O)C(CO)O2)cc1F (centres undefined) |  | > 100 | > 100000 | > 100 | > 100000 | > 100 |  | > 100 | 59.4 | > 100 | 46 | > 100 | 228 | > 100 | 0.943 | > 26.4 | 58.9 | > 100 | < 50.6 | > 100
CN(C)c1ccc(C(=S)c2ccc(N(C)C)cc2)cc1 | 3530 | 15.2 | 3610 | > 100 | 6290 | > 100 | 6830 | 59 | 11600 | > 100 | 3160 | 74.8 | 3450 | 20.6 | 9660 | > 100 | 10300 | > 100 | 6340 | > 100
CCCCCC/C=C/C#CCCCCCCCC(=O)O |  | > 100 |  | > 100 |  | > 100 |  | > 100 |  | > 100 |  | > 100 |  | > 100 |  | > 100 |  | > 100 |  | > 100
CC/C=C\C[C@H]1C/C=C2/C(=O)C=C[C@H]2C/C=C\CCCC(=O)O1 | 3770 | 12.6 | 1890 | > 50 | 2660 | 8.99 | 1870 | 6.7 | 2000 | 11.7 | 7210 | 14.4 | 1740 | 7.27 | 2370 | 8.43 | 3240 | 10.2 | 1950 | 7.09
C[C@H]1CCC/C=C/C2CC(OC(=O)CN(C)C)CC2C(OC(=O)CN(C)C)/C=C/C(=O)O1 (some centres undefined) | 224 | 3.79 | 3290 | > 100 | 1710 | 34.4 | 246 | 3.6 | 308 | > 22.9 | 50.8 | 0.282 | 98.2 | 0.243 | 215 | 0.537 | 107 |  | 861 | 46.8
C[C@@H]1CC[C@H]2[C@@H](C)C(O)O[C@@H]3O[C@]4(C)CC[C@@H]1[C@]32OO4 (some centres undefined) | 2000 | 15.2 | 337 | 4.57 | 1130 | 5.23 | 718 | 3 | 389 | 12.7 | 2890 | > 96.6 | 530 | 16.6 | 2600 | > 63.2 | 1590 | > 48.8 | 532 | 16.6
CNC(=O)c1cc(Oc2ccc3nc(NC(=O)Nc4ccc(CN5CCOCC5)c(C(F)(F)F)c4)sc3c2)ccn1 | 2740 | 7.81 | 1530 | > 100 | 2770 | 10.5 | 2100 | 4.58 | 2630 | 7.71 | 1900 | 4.05 | 1010 | 2.22 | 3000 | 7.11 | 2220 | 4.32 | 1770 | 3.54
O=C(NCCCCCCCCCCCCNC(=O)c1cnc2ccccc2n1)c1cnc2ccccc2n1 |  | > 100 |  | > 100 |  | > 100 |  | > 100 |  | > 100 |  | > 100 |  | > 100 |  | > 100 |  | > 100 |  | > 100
Cc1c2cnccc2c(C)c2c1c1cc(O)ccc1n2C(C)C | 797 | 2.58 | 1020 | 5.6 |  |  | 2360 | 6.02 | 972 | 6.18 | 2000 | 13.3 | 1350 | 3 | 1550 | 4.94 | 1700 | 4.53 | 1770 | 6.51
C[C@@H](Nc1nc(N[C@H](C)C(F)(F)F)nc(-c2cccc(Cl)n2)n1)C(F)(F)F | 25600 | > 100 | > 100000 | > 100 | 52500 | > 100 | > 100000 | > 100 | 31300 | > 100 | 29900 | 99.7 | 51200 | > 100 | 66300 | > 100 | 27400 | 91.4 | 20800 | 54
COc1ccc(-n2cc(-c3cc(OC)c(OC)c(OC)c3)nc2SCc2ccc(Cl)cc2)cc1OC | > 100000 | > 100 | 87500 | > 100 |  |  | > 100000 | > 100 | > 100000 | > 100 | 89000 | > 100 | 41700 | > 100 | > 100000 | > 100 | > 100000 | > 100 | > 100000 | > 100
COc1cc(/C=C/C(=O)c2cccc3ccccc23)cc(OC)c1OC |  | 12.4 |  | 14.1 |  | 43.4 |  |  |  | 4.58 |  | 10.6 |  | 23.8 |  | 28.2 |  | 14.8 |  | 18.8
CC(=O)Nc1ccccc1-c1nc2ccccc2nc1-c1ccccc1 |  | > 100 |  | > 100 |  | > 100 |  | > 100 |  | > 100 |  | > 100 |  |  |  | > 100 |  | > 100 |  | > 100
